Experimental data: patent EP1527784B1, “Method for extracting antineoplastic components from Bupleurum scorzonerifolium and composition comprising lactones” (Buddhist Tzu Chi General Hospital, priority 2003, dated 2005)
≈ marks a conversion by molar mass, not a printed value.

Assays:
A549-T12 = test: Annexin V-FLOUS / PI flow cytometry for apoptosis, Taxol-resistant cells; type: cell-based; conditions: Homo sapiens, 48 hours, untreated group 6.8%, read-out: ratio of apoptotic tumor cell
Text: (§1) The following embodiments are described with Taxol-resistant tumor cell A549-T12 (passage cultured from lung cancer cell line A549 cells with low concentration of taxol) as an example to test the effect of BS-A and its pure compounds (these represent chaihulactone and chaihulactone analogues). Flow cytometry, cytotoxicity, and biomolecular examinations are adopted to estimate the mechanism of Bupleurum scorzonerifolium extracts on Taxol-resistant tumor cells.
FIGs. […] Among these figures, X-axis represents the fluorescent brightness of tumor cells with antibody Annexin V-FLOUS whereas Y-axis represents the fluorescent brightness of tumor cell with antibody PI. […] This indicates isochaihulactone has better induction for apoptosis of Taxol-resistant tumor cell line than other chaihulactone analogues.

tumor cells = conditions: in two years; initial treatment stage; cited from earlier work
p21 = test: Western blotting of tumor suppressor p21; type: cell-based, human; conditions: A549 cells, FIG. 5, 1 day or 3 days
p53 = test: Western blotting of tumor suppressor p53; type: cell-based, human; conditions: A549 cells, FIG. 5, 1 day or 3 days
A549 cells [1] = test: Annexin V-FLOUS / PI flow cytometry for apoptosis; type: cell-based; conditions: Homo sapiens, 48 hours, untreated group 3.8%, read-out: proportion of cell death (apoptosis)
Protocol: In A549 cells, 20 µM of Isochaihulactone and 60 µg/ml of BS-AE are added to A549 cell line. After 48 hours of treatment, flow cytometry is utilized to detect the staining results between Annexin V-FLOUS and PI. In FIGs. 3A through to 3C, X-axis represents the fluorescent brightness of tumor cells with antibody Annexin V-FLOUS, and Y-axis represents the fluorescent brightness of tumor cells with antibody PI. From the diagrams, it was shown that the untreated group has only 3.8% of apoptosis, whereas A549 cells treated with Isochaihulactone and BS-AE has much higher proportion of cell death (about 30-40%).

A549 cells [2] = test: Cell cycle analysis by flow cytometry (PI); type: cell-based, human; conditions: FIG. 4; concentration not given
Protocol: Furthermore, flow cytometry is employed to observe the changes in cell cycle before and after the addition of different extracts from Bupleurum scorzonerifolium to A549 cells. In figures 2A through to 2D, X-axis represents chromosome numbers (2N, 4N, etc.) of tumor cells in contact with the antibody, Y-axis represents the fluorescent brightness of Propidium Iodide (PI). It is clearly noted that before treatment lung cancer cell line A549 is mainly at stage of G0/G1, but when 60 µg/ml of BS-AE and 600 µg/ml of BS-ME are added to the tumor cells, the tumor cells are arrested at G2/M stage. This is particularly the case for BS-ME.

[3] = tested on: human hepatoma cell line J5, ovarian cancer cell line OVCAR-3, human malignant glioblastoma cell line DBTRG-05MD, lung cancer cell line A549 and colorectal …; test: MTT cytotoxicity screening of extracts and components on a tumor cell line panel; type: cell-based; conditions: MTT assay / drug screening; Table 1 cited but not given
Protocol: Each of the aforementioned heterocyclic compounds from each extract as well as the acetone crude extracts of Bupleurum scorzonerifolium are assayed to measure the antineoplastic activity. It was shown that majority of antineoplastic components of Bupleurum scorzonerifolium are retained in the BS-AE and BS-ME. The BS-HE and BS-CE hardly have any tumor-suppressing effects. Besides, the extracts can be further purified using chromatography method (e.g. low pressure liquid chromatography or high performance liquid chromatography (HPLC)), such that fractions are collected separately after each elution to obtain the pure compounds mentioned above.
Moreover, from chemical analysis of the main representative molecular structure of the eighth component, it was observed that the compound shares a common feature shown in formula (I) as having a γ-butyrolactone-centred heterocyclic compound with Z configuration or E configuration at carbon 2(5), or pharmacologically compatible salts, esters, ketones or their derivatives. [drawing 19] where the heterocyclic compound may have a 3R or 3S configuration, X can be N, O, S, or Se, andA, B can be selected from the following substituents: [drawing 20] where R1, R2, R3, R4, R5 can be selected from hydrogen atom, a halogen atom, a hydroxyl group, a sulfoxyl group, an amino group, a methoxyl group, and a nitro group. […]

A549-T12 cells = test: MTT cytotoxicity assay on Taxol-resistant lung cancer cells; type: cell-based; conditions: Taxol-resistant human lung cancer cell line A549-T12; read-out: concentration that causes 50% growth inhibition (IC50)
Text: On the other hand, when the BS-AE containing γ-butyrolactone heterocyclic compounds, such as isochaihulactone and BS-AE are applied on Taxol-resistant tumor cell line, for example, human lung cancer cell line A549-T12, they also show anti-tumor effects on the resistant tumor cells. […] Furthermore, the tumor-suppressing effects of those Bupleurum scorzonerifolium extracts after isolated by the extraction method of this invention are more prominent.
as §1
Furthermore, a lower dose (2-4 µg/ml) of isochaihulactone is required to induce apoptosis on A549-T12 cells than that of A549 cells (8-10 µg/ml).

β-tubulin = test: Immunoblot of soluble and particular (polymerized) β-tubulin in A549 cells; type: cell-based, human; conditions: FIG. 7

COc1ccc(/C=C2\C(=O)OC[C@@H]2Cc2ccc3c(c2)OCO3)cc1OC [BS-15, Isokaerophyllin]
cytotoxicity at 8 µg/mL (A549-T12): 23.1%

CC(=O)O[C@H]1C(=O)[C@@]2(C)[C@H]([C@H](OC(=O)c3ccccc3)[C@]3(O)C[C@H](OC(=O)[C@H](O)[C@@H](NC(=O)c4ccccc4)c4ccccc4)C(C)=C1C3(C)C)[C@]1(OC(C)=O)CO[C@@H]1C[C@@H]2O [Taxol, Paclitaxel]
improvement of survival rate of the patient (tumor cells): about 15%

COc1cc(/C=C2\C(=O)OC[C@@H]2Cc2ccc3c(c2)OCO3)cc(OC)c1OC [isochaihulactone, Isochaihulactone]
expression level of tumor suppressor p21 (p21): increase in expression level | cytotoxicity at 8 µg/mL (A549-T12): 30.6% | expression level of tumor suppressor p53 (p53): increase in expression level | cytotoxicity at 20 µM (A549 cells [1]): 30 to 40% | cell cycle stage of tumor cells (A549 cells [2]): arrest at the stage G2/M | antineoplastic effect (comparison among extracts and components) [3]: most prominent anti-tumor effects | IC50 (A549-T12 cells): 2 to 4 mg/L (≈ 5.02 to 10 µM) | particular form (polymerized β-microtubule) (β-tubulin): increases | soluble form (non-polymerized β-microtubule) (β-tubulin): significantly diminishes
